Source: ChEMBL document CHEMBL4190263, “Bacterial Production of a Pederin Analogue by a Free-Living Marine Alphaproteobacterium” (2017)

Key:
Type in all cases: functional
A549 = experiment: Antiproliferative activity against human A549 cells assessed as growth inhibition after 72 hrs by SRB assay; details: A549, 72 h
HT-29 = experiment: Antiproliferative activity against human HT-29 cells assessed as growth inhibition after 72 hrs by SRB assay; details: HT-29, 72 h
MDA-MB-231 = experiment: Antiproliferative activity against human MDA-MB-231 cells assessed as growth inhibition after 72 hrs by SRB assay; details: MDA-MB-231, 72 h
PSN1 = experiment: Antiproliferative activity against human PSN1 cells assessed as growth inhibition after 72 hrs by SRB assay; details: PSN1, 72 h

Measured: GI50

C=C1C[C@](OC)([C@H](O)C(=O)N[C@@H](OC)[C@@H]2C[C@@H](O)C(C)(C)[C@@H](C[C@@H](CO)OC)O2)O[C@H](C)[C@@H]1C
2 to 2.9 nM: all assays above
